Data from patent US7247615B2, “Peptide agonists of prostate-specific antigen and uses therefor” (priority 2001, dated 2007).
Where “and” joins values, the source holds several entries; their conditions need not be identical. Equal entries are not always repeated.

Columns and labels:
C1R-A2 cells = experiment: 111In release cytotoxic assay, peptide-pulsed targets; type: cell-based, human
T-PSA-3 cells [1] = experiment: Cytometric Bead Array cytokine production by peptide-stimulated T cells; type: cell-based, human
Description: (§1) Detection of Cytokines. Supernatant of T cells exposed for 24 h to peptide-pulsed infected DC, rV-PSA infected DC, or rV-PSA-3A infected DC, in IL-2-free medium at various responder: stimulator ratios, were screened for secretion of IFN-γ using an ELISA kit (R & D Systems, Minneapolis, Minn.). The results were calculated as pg/ml. A Cytometric Bead Array (CBA) system (BD PharMingen, San Diego, Calif.) was also used to determine the secretion of multiple cytokines by specific T cell lines. The CBA system uses the fluorescence detection by flow cytometry to measure soluble analytes in a particle-based immunoassay. The BD human Th1/Th2 cytokine CBA Kit was employed to measure IL-2, IL-4, IL-5, IL-10, TNF-α, and IFN-γ protein levels in a single sample. The cytokine capture beads were mixed with PE-conjugated detection antibodies and then incubated with recombinant cytokine standards or test samples to form sandwich complexes. The samples results were generated in graphical and tabular format using BD CBA analysis software. The results were calculated as pg/ml.
The cytokine profile of T cells stimulated with APCs pulsed with either the PSA-3 or the PSA-3A peptide was then analyzed. The T cell line derived using the PSA-3 peptide was used in these studies, and the APCs used were autologous B cells. A Cytometric Bead Array (CBA) assay was used for analysis (see Examples section) using supernatant fluids obtained 24 h after stimulation. FIGS. 6A–6C illustrate […] of the 10 internal standards used for the calibration of the results obtained in this assay. FIGS. 6D–6F show the levels of each of six cytokines produced by T cells stimulated with APCs pulsed with no peptide, PSA-3A peptide, and PSA-3 peptide, respectively. […] The results obtained for IL-5 will be discussed below (Conclusions section).

V8T cells = type: cell-based, human
T-PSA-3A cells = experiment: IFN-γ production by T cell line stimulated with peptide-pulsed DCs (ELISA); type: cell-based, human; details: peptide 25 μg/ml
Description: as §1
Table 2: Production of IFN-γ by a T cell line stimulated with PSA-3 or agonist PSA-3A peptides. The PSA-specific T cell line T-PSA-3A was used as effector cells at IVS-3. T-PSA-3A cells were stimulated with irradiated HLA-A2 positive allogeneic DCs either pulsed with PSA-3 or PSA-3A peptide at a concentration of 25 μg/ml and an effector-to-APC ratio of 10:1. After 24-h culture supernatants were collected and screened for the secretion of IFN-γ. APC=antigen […].

T-PSA-3 cells [2] = type: cell-based, human
HLA-A2 = molecular target: T1, HLA-A2 (Homo sapiens, UniProt P04439, D140Y/D185E/D98H/E176V/E277Q/G131W/G231S/I119V/I121R/I166T/I218V/L300P/L318F/N151K/N90K/P208A/P217A/Q86G/Q94H/R138H/R169H/T345S); experiment: Peptide binding to HLA-A2 on T2A2 cells (flow cytometry)
T1 construct: endogenous in cells; host or cells: T2A2 / 174CEM-T2 (T2) transport deletion mutant cell line
Description: Single-color flow cytometric analysis. The method for single-color flow cytometric analysis was described previously (F. Guadagni et al., 1990, Cancer Res. 50:6248–6255). Briefly, cells were washed three times with cold Ca^2+ and Mg^2+-free DPBS and then stained for 1 h with mAb against HLA-A2 (A2,69, One Lambda, Inc., Canoga Park, Calif.), using 10 μg of the 1× working dilution per 10^6 cells. Mineral oil plasmacytoma-104E (Cappel/Organon Teknika Corp., West Chester, Pa.) was used as an isotype control. The cells were washed three times and incubated with a 1:100 dilution of fluorescein isothiocyanate (FITC)-labeled goat anti-mouse immunoglobulin (IgG) (Kirkegaard and Perry Laboratories, Gaithersburg, Md.). The cells were immediately analyzed using a Becton Dickinson FACScan equipped with a blue laser with an excitation of […] at 488 nm. Data were gathered from 10,000 live cells, stored and used to generate results.
Peptide Binding to HLA-A2. […] Briefly, 1×10^6 cells in serum-free Iscove's modified Dulbecco's complete medium were incubated with peptides at a concentration of 50 μg/ml in 24 well culture plates at 37° C. in 5% CO2. Flow cytometry for peptide binding was performed using T2 cells and single-color analysis. After cells were washed three times in DPBS, as described above, they were incubated for 1 h with HLA-A2 specific MAb (One Lambda, Inc.) using 10 μg of a 1× working dilution per 10^6 cells. UPC-10 (Cappel/Organon Teknika) was used as isotype control. The cells were washed three times and incubated with 1:100 dilution of FITC-labeled anti-mouse IgG (Becton Dickinson). Analysis was conducted with the FACScan, as described above. Cells were maintained on ice during all cell preparation and staining.
The four analogs were then tested for binding to the HLA-A2 positive T2A2 cells as described in the Examples section. The NCA peptide was previously shown to not bind to HLA-A2, and was used as a negative […] control. Peptides were added to T2A2 cells at concentrations of 0 to 50 μg/ml.

[3] = T-PSA-3 + peptide-pulsed autologous B cells, 24 h supernatant

## VLSNDVCAQV (SEQ ID NO:3) [PSA-3A]
C1R-A2 cells; T-PSA-3A line, C1R-A2 targets, E:T 25:1, FIG. 4A
  Fold less peptide than PSA-3 peptide necessary for lysis: approximately 8 fold
C1R-A2 cells; T-PSA-3 line, C1R-A2 targets, E:T 25:1
  Fold less peptide required to achieve similar levels of lysis: approximately 8 fold
C1R-A2 cells; peptide 25 μg/ml, IVS-3, two E:T ratios, FIG. 3A
  Lysis of peptide-pulsed C1R-A2 cells by T-PSA-3A line: to a greater extent than cells pulsed with the PSA-3 peptide
C1R-A2 cells; peptide 25 μg/ml, IVS-3, two E:T ratios, FIG. 3B
  Lysis of peptide-pulsed C1R-A2 cells by T-PSA-3 line: to a greater extent than those pulsed with the PSA-3A peptide
T-PSA-3 cells [1]; T cells stimulated with PSA-3A as compared to PSA-3 peptide
  Production of IL-5: increase
T-PSA-3 cells [1]; [3]
  Production of IFN-γ: greater production
  Production of IL-2: greater production
  Production of IL-4: Low or undetectable levels
  Production of IL-10: Low or undetectable levels
  Production of TNF-α: No TNF-α could be detected
V8T cells
  Production of IFN-γ by V8T: <13.0 pg/mL
T-PSA-3A cells; APC DCs, T-PSA-3A T cells present, effector-to-APC 10:1, 24 h, IVS-3
  PRODUCTION OF IFN-γ: 566 pg/mL
T-PSA-3A cells; APC DCs, no T cell, 24 h
  PRODUCTION OF IFN-γ: <15 pg/mL
T-PSA-3A cells; no APC, T-PSA-3A T cells present, 24 h
  PRODUCTION OF IFN-γ: <15 pg/mL
T-PSA-3 cells [2]
  Production of IFN-γ by None (no T cells): <13.0 pg/mL
  Production of IFN-γ by T-PSA-3: 946.6 pg/mL and 915.9 pg/mL
HLA-A2; FIG. 1B
  Binding to HLA-A2 at lower peptide concentrations: clearly bound higher levels of HLA-A2 than PSA-3
HLA-A2; peptide 0 to 50 μg/ml, FIG. 1A
  Binding to HLA-A2 (relative fluorescence, MFI): higher levels than PSA-3
